This note sets out measurements from patent US20250099491A1, “PREVENTION OR TREATMENT OF CARDIOVASCULAR DISEASES WITH HIGH PENETRATION PRODRUGS OF ASPIRIN AND OTHER NSAIDS” (Techfields Inc., priority 2022, published 2025).

Data set [1] deals with rats with acute ischemia induced by Middle Cerebral Artery Occlusion (MCAO). Kind of data set: Example 14: acute ischemia induced by middle cerebral artery occlusion (MCAO) in rats. The data set is classed as in vivo, rat. The conditions noted are these: for mortalities: deaths of animals in group; for infarct volume: Day 14 after MCAO, TTC staining, mean±SEM.
For data set [2], the system named is middle cerebral artery (MCA) thrombosis model of monkeys. The data set is described as follows: Example 19: middle cerebral artery (MCA) thrombosis model of monkeys. To be noted: for infarct volume: Day 28 after MCA thrombosis.
Procedure: Aspirin was administered orally by gavage using a nasal catheter with a disposal syringe. The catheter was inserted into the stomach through the mouth. The treatment was once per day of MCA thrombosis (day 0), twice per day for 27 days.
The monkeys that had been fastened for at least 12 h were anesthetized with intramuscular administration of ketamine hydrochloride (20 mg/kg), and placed on an operation-bed. Anesthesia was continued with 1.0% isoflurane in O2 gas until 30 min. The inhalation anesthesia was performed with anesthesia machines (SN23402, Hallowell engineering and manufacturing corporation, USA) and respirators (SN23402, Hallowell engineering and manufacturing corporation, USA), and placed on an operation-bed. During anesthesia, body temperature of the animals (rectal temperature) was controlled between 37.0±0.5° C. by heating mattresses (XMTA-7000, Delixi Electric., Ltd.).
Under anesthesia, the left eye was enucleated using a bipolar coagulation device (Valleylab Force 1C, USA). A craniotomy was then performed supralaterally to the left side of the optic nerve. The next day animals were anesthetized with ketamine hydrochloride (20 mg/kg) and the dura and subarachnoid membrane were opened. MCA thrombosis was induced by photochemical reaction. The proximal part of the main MCA trunk. was irradiated with green light wave length 532 nm achieved by use of a xenon lamp (GL532T3-100FC, Shanghai Laser& Optics Century Col., Ltd.). The irradiation was directed by a 3-mm diameteroptic fiber mounted on a micromanipulator. Irradiation was started and rose bengal 20 mg/kg was injected intravenously. Photoirradiation was continued for a 30 min. The dura was then covered with a moist gelatin sponge.
Neurological deficits (see Table 3) were assessed 1, 3, 5, 7, 14 and 28 days after the onset of MCA thrombosis (day 0) in a blind manner. The neurological deficits was scored on consciousness, sensory system, motor system and skeletal muscle coordination, and the total neurological deficit score was calculated by summing the scores of consciousness, sensory system, motor system and skeletal muscle coordination.
The survival monkeys were deeply anesthetized with pentobarbital sodium (35 mg/kg, i.v.) 28 days after the onset of MCA thrombosis. After cutting the atriums of heart, 200 mL of heparinized physiological saline (10 U/mL) was allowed to perfuse the brain via the common carotid arteries, and followed by perfusion of 200 mL of 10% formalin neutral buffer solution. The whole brain was removed, and then was put in pathology sample preservation packs containing 10% formalin neutral buffer solution. For each brain sample, the coronal sections (thickness: 7-8 μm) per site were prepared at 10 sites at 4-mm intervals. Slices per site were each stained with H & E reagent.
Measurement of cerebral infarct lesions was carried out in a blind manner. The infarct lesions in the ischemic side are defined as a necrotic portion compared with that in the contralateral side. The infarcted area of left cerebral hemisphere (A) in the cross-sections was traced and measured using a computerized image analysis system (image J).
When the infarct size of 2 serial section was made into D and D′, the infarcted volume using the thickness (4 mm) of a section is measured in the following formula:
Total infarcted volume is calculated by summing the infarcted volume of the 10 serial sections.
The conditions of data set [3]: following topical spray.
Procedure: Each cohort began with single dose administration of study drug on Day 1 of the cohort's study schedule.
For single dose PK analysis, serial blood samples were collected following the Day 1 dose at the following time points: 0 (pre-dose), 0.25, 0.5, 0.75, 1, 1.5, 2, 2.5, 3, 4, 5, 6, 8, 10, 12, 18, 24, 48, 72, 96 and 120 hours post-dose. For multiple-dose PK analysis, serial blood samples were collected following the last morning dose on Day 12 according to the same schedule used for the single-dose PK analysis. In addition, daily trough PK samples were collected prior to the morning dose on Days 7 through 11.
The mark [4] stands for this setting: high dose 30 mg/kg/time transdermal, twice a day.
[5] abbreviates: low dose 15 mg/kg/time transdermal, twice a day.

A value given as a limit tells only on which side of the number the result lay.

In the case of `CCN(CC)CCOC(=O)c1ccccc1OC(C)=O.Cl` [Compound-1], the mortalities in data set [1] (high dose 60 mg/kg topical bid) and in data set [1] (middle dose 30 mg/kg topical bid) was 0 of 25 throughout. The infarct volume is reported as 32.07%±2.061 in data set [1] (low dose 15 mg/kg topical bid 14 days), 27.11%±1.658 in data set [1] (middle dose 30 mg/kg topical bid 14 days), 988 mm^3 in data set [2] (setting [4]) and 945 mm^3 in data set [2] (setting [5]). The “neuroprotective effect on brain ischemic injury” value in data set [1] (low, middle and high dose groups compared to vehicle group) was “good neuroprotective effect”. In addition, the neurological deficit scores result in data set [1] (low, middle and high dose groups vs vehicle group) is “show differences significantly”. Further, the body weight result in data set [1] (low, middle and high dose groups, Day 5-14, vs vehicle group by t-test) is given as “increased”. Besides, the Mortality rate in data set [2] (setting [4]) is 0/7; in data set [2] (setting [5]), 0/5. Further, the “gemistocytic astrocytes in the penumbra area” value in data set [2] (setting [4]) is “many gemistocytic astrocytes”. Further, the “liquefaction in the infarct area (histopathology)” value is listed as “slight” in data set [2] (setting [4]) and “moderate” in data set [2] (setting [5]). For the same molecule, the neurologic deficits entry in data set [2] (low dose (15 mg/kg) and high dose (30 mg/kg) groups, transdermal twice a day) is “dose-dependently improved”. Further, in data set [2] (transdermal treatment groups), the “delayed neuronal death in the distant area” value is “slightly”. In addition, the “converted to salicylic acid” value in data set [3] was at least 99%.
